{"source": "patent US20240043416A1", "about": "“SALT AND CRYSTAL FORM OF HA INHIBITOR COMPOUND” (SICHUAN HAISCO PHARMACEUTICAL CO., LTD., priority 2021, published 2024)", "key": {"[1]": {"experiment": "Characterization of salt form of compound A (properties of various salts, Table 8)", "format": "physicochemical", "details": "determined by the height of the strongest peak in XRPD"}, "in vivo": {"experiment": "in vivo", "details": "male, SD, rat", "description": "Test objective: by giving test compounds to SD rats via single-dose intravenous and intragastric administration and measuring the concentrations of the test compounds in plasma of rats, the pharmacokinetic characteristics and bioavailability of the test compounds in rats were evaluated.\nTest animal: male SD rats, about 220 g, 6-8 weeks old, 6 rats/compound, purchased from Chengdu Ddossy Experimental Animals Co., Ltd.\nTest method: on the day of the test, 6 SD rats were randomly grouped according to their body weight; the animals were fasted with water available for 12 to 14 h one day before the administration, and were fed 4 h after the administration; and the administration was performed according to Table 10.\nBefore and after the administration, 0.1 mL of blood samples were drawn from the orbits of the animals under isoflurane anaesthesia, and placed in an EDTAK2 centrifuge tube. Centrifugation was performed at 5000 rpm at 4° C. for 10 min, and plasma was collected.\nTime points for sample collection in G1 and G2 groups comprise 0, 5 min, 15 min, 30 min, 1 h, 2 h, 4 h, 6 h, 8 h and 24 h.\nBefore analysis and detection, all samples were stored at −80° C.\n30 μL of each of plasma samples, standard curve samples and quality control samples was taken, and 200 μL of acetonitrile solution containing an internal standard was added. The resulting mixture was homogeneously mixed by vortex and centrifuged at 4° C. at 12000 rpm for 10 min. 170 μL of the supernatant was taken and placed to a 96-well plate, and LC-MS/MS analysis was performed, wherein the sample size was 0.2 μL.\nThe main pharmacokinetic parameters were analysed by a non-compartmental model using WinNonlin 8.0 software."}}, "note": "Counter-ions that a name gives are not always drawn.", "data": [{"smiles": "C1=Cc2cccc(OC[C@H]3CNCCO3)c2C1.O=S(=O)(O)c1ccccc1", "note": "[Benzenesulfonate]", "values": [{"measurement": "Crystallinity", "setting": "[1]", "value": "Relatively"}]}, {"smiles": "Cc1nnn([C@@H](c2ccccc2)C2CCN(C(=O)c3cc(-c4nc5cc(NC(=O)[C@@H]6C[C@@H]6F)ccc5o4)ccn3)CC2)n1", "note": "[Compound A, (1S,2S)-2-fluoro-N-(2-(2-(4-((R)-(5-methyl-2H-tetrazol-2-yl)(phenyl)methyl)piperidine-1-carbonyl)pyridin-4-yl)benzo[d]oxazol-5-yl)cyclopropane-1-carboxamide]", "values": [{"measurement": "bioavailability", "setting": "in vivo", "value": "26.1 ± 6.2", "unit": "%"}, {"measurement": "AUC", "setting": "in vivo; iv, 2 mg/kg", "value": "2.01 ± 0.396", "unit": "µg·h/mL"}, {"measurement": "Cmax", "setting": "in vivo; iv, 2 mg/kg", "value": "1.46 ± 0.134", "unit": "µg/mL"}, {"measurement": "half-life", "setting": "in vivo; iv, 2 mg/kg", "value": "0.897 ± 0.013", "unit": "h"}, {"measurement": "AUC", "setting": "in vivo; po, 10 mg/kg", "value": "2.61 ± 0.62", "unit": "µg·h/mL"}, {"measurement": "Cmax", "setting": "in vivo; po, 10 mg/kg", "value": "0.715 ± 0.127", "unit": "µg/mL"}, {"measurement": "Tmax", "setting": "in vivo; po, 10 mg/kg", "value": "1.67 ± 0.58", "unit": "h"}, {"measurement": "half-life", "setting": "in vivo; po, 10 mg/kg", "value": "1.04 ± 0.099", "unit": "h"}]}, {"smiles": "O=S(=O)(O)c1ccc2ccccc2c1", "note": "[Example 2-naphthalenesulfonate, 2-naphthalenesulfonate]", "values": [{"measurement": "Crystallinity", "setting": "[1]", "value": "High"}]}, {"smiles": "Br", "note": "[Hydrobromide]", "values": [{"measurement": "Crystallinity", "setting": "[1]", "value": "High"}]}]}
